Measured values taken from US20250177566A1, “USE OF CHEMICAL EPIGENETIC MODIFIERS TO MODULATE GENE EXPRESSION” (The University of North Carolina at Chapel Hill, priority 2022, published 2025).

Test system: MYOD1
Assay: MYOD1 mRNA activation in HEK293T (dCas9, MS2-FKBP*x2), qRT-PCR
Format: cell-based, human
Settings: FIG. 7E; for fold change, MYOD1 mRNA (MYOD1 gRNA vs NT gRNA): 24 hrs
Procedure: HCT116 cells were stably infected with dCas9 and MS2-FKBP*x2 via lentivirus. NT gRNA was transfected and the change of CXCR4 mRNA expression were quantified with RNA extraction and qRT-PCR, normalized to GAPDH. After 24 hrs of SLF*-CEMa exposure, the cells were separated into three groups: 1) continuous SLF*-CEMa treatment; 2) washout with media; and 3) washout with 20 μM AP1867 added. RNA extraction was performed at 12, 24, 48, and 72 hrs time points. […] HCT116 cells were stably expressing dCas9 and MS2-FKBP*x2 constructs and transfected with CXCR4 gRNA or NT gRNA. APC CXCR4 antibody was used in flow cytometry at referred time points. […] HEK293T cells were lentivirally infected with dCas9 and MS2-FKBP*x2 constructs and transfected with MYOD1 gRNA or NT gRNA. RNA extraction and qRT-PCR were performed after 24 hrs of CEM207 treatment in 5 nM, 25 nM, and 50 nM concentrations along with no chemical treatment as the control group. MYOD1 mRNA expression level was normalized to GAPDH. […] Stable dCas9 and MS2-FKBP*x2 expressing HEK293T cells were transfected with CXCR4 gRNA and NT gRNA. RNA extraction and qRT-PCR were performed after 24 hrs of 25 nM CEM207 or no chemical treatment. CXCR4 mRNA expression level was normalized to GAPDH. […] Stable dCas9 and MS2-FKBP*x2 expressing HEK293T cells were transfected with IL1RN gRNA and NT gRNA. RNA extraction and qRT-PCR were performed after 24 hrs of 25 nM CEM207 treatment. IL1RN mRNA expression level was normalized to GAPDH. […] Stable dCas9 and MS2-FKBP*x2 expressing HEK293T cells were transfected with ASLC1 gRNA and NT gRNA. RNA extraction and qRT-PCR were performed after 24 hrs of 25 nM CEM207 treatment. IL1RN mRNA expression level was normalized to GAPDH. […] Error bars represent the standard deviation.
As a gene-specific activation technology, it is important to investigate the universal applicability of SLF*-CEMa and evaluate their ability to activate variable genes in different tissue cells. To do so, HEK293T cells stably expressing dCas9 and MS2-FKBP*x2 constructs via lentiviral infection were established and benchmarked for the gene activation level of MYOD1, CXCR4, and IL1RN after CEM207 treatment for 24 hours. HEK293T cells transfected with MYOD1 gRNA were treated with 5 nM, 25 nM, or 50 nM of CEM207. RNA extraction and qRT-PCR were preformed after 24 hours. […] As a result, another gene was tested in the […] cell line. Stably infected cells were transfected with ASCL1 gRNA and mRNA expression was measured by qRT-PCR.
RNA extraction and qRT-PCR. All RNA extraction experiments were conducted in 12-well plate format. Culturing medium was removed, and cells were washed with 1×PBS, following with 0.05% trypsin to disassociate. […] The primer sets used in quantifying each gene can be found in Table 4.

CC[C@H](C(=O)N1CCCC[C@H]1C(=O)O[C@H](CCc1ccc(OC)c(OC)c1)c1cccc(OCC(=O)NCCOCCOCCNC(=O)C[C@@H]2N=C(c3ccc(Cl)cc3)c3c(sc(C)c3C)-n3c(C)nnc32)c1)c1cc(OC)c(OC)c(OC)c1 [CEM207, (R)-1-(3-((14-((S)-4-(4-Chlorophenyl)-2,3,9-trimethyl-6H-thieno[3,2-f][1,2,4]triazolo[4,3-a][1,4]diazepin-6-yl)-2,13-dioxo-6,9-dioxa-3,12-diazatetradecyl)oxy)phenyl)-3-(3,4-dimethoxyphenyl) propyl(S)-1-((S)-2-(3,4,5-trimethoxyphenyl)butanoyl) piperidine-2-carboxylate]
MYOD1 mRNA expression (5 nM, 25 nM, or 50 nM, 24 hours): dose-dependent increase
fold change, MYOD1 mRNA (MYOD1 gRNA vs NT gRNA) (5 nM): 5.4 fold
fold change, MYOD1 mRNA (MYOD1 gRNA vs NT gRNA) (25 nM): 10.8 fold
fold change, MYOD1 mRNA (MYOD1 gRNA vs NT gRNA) (50 nM): 10.9 fold
